Test results reported in PMC8379219 (Nature Communications, 2021).
Values belong to the molecule of their own block, whether it stands above or below them.

How the values were obtained:
SERT WT = SERT WT (Homo sapiens, UniProt P31645); assay: [3H]IMI dissociation rate assay (allosteric potency), COS-7 membranes; assay type: binding; design: expressed in transfected cells; host or cells: COS-7;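 also: radioligand pre-bound 30 min at room temperature to equilibrium, then dissociation followed over 5–70 min, ended by filtration through GF/B filters, at least three independent experiments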
SERT = conditions: cited from earlier work
SERT Q332A = SERT Q332A (Homo sapiens, UniProt P31645, Q332A); assay: [3H]5-HT transport, COS-7 cells, S2 mutant Q332A; assay type: cell-based
Protocol: (§1) All determinations were performed in triplicate.

SERT F335A = SERT F335A (Homo sapiens, UniProt P31645, F335A); assay: [3H]5-HT transport, COS-7 cells, S2 mutant F335A; assay type: cell-based
Protocol: as §1

SMILES: CN(C)CCCN1c2ccccc2CCc2ccccc21 [IMI, Imipramine]
Slope for [3H]IMI dissociation (SERT WT): 0.528 ± 0.012 min⁻¹
Allosteric properties at SERT (SERT; ref Plenge et al 1990 Eur J Pharmacol): very weak allosteric properties

5-HT VMAX (SERT Q332A): 1151 ± 64 pmol/min/10^5 cells
5-HT VMAX (SERT F335A): 2368 ± 394 pmol/min/10^5 cells
SMILES: NCCc1c[nH]c2ccc(O)cc12 [5-HT, 5-[1,2-^3H]hydroxytryptamine]

SMILES: NC(=O)c1ccc2c(c1)CO[C@@]2(CCCN1CCC(c2ccc3ccc(=O)[nH]c3c2)CC1)c1ccc(F)cc1 [Lu AF60097]
Allosteric potency (SERT; [3H]IMI bound to S1): ~ 30 nM
